Source: article PMC11763059, “GENI as an AMPK Activator Binds α and γ Subunits and Improves the Memory Dysfunction of Alzheimer’s Disease Mouse Models via Autophagy and Neuroprotection” (Antioxidants, 2025)

Legend:
[1] = system: MAPK; assay: Drug affinity responsive target stability (DARTS), MAPK; assay type: binding; settings: 0.1–100 μM GENI, protein: pronase 5:1
Description: Cells were lysed by RIPA lysis buffer, and the protein concentration was measured. The lysate was divided into six groups. Before incubation with protease (protein: pronase = 50:1 w/w for PI3K and AMPK detection, 5:1 for MAPK detection, 100:1 for p53 detection) for 25 min in 25 °C, 0.1–100 μM GENI was added to lysates and incubated for 2 h at room temperature. The samples were mixed with loading buffer and then separated on 8% SDS-PAGE for immunoblotting analysis.

[2] = system: PC12 cells; assay: MDA content assay in PC12 cells; assay type: cell-based; settings: GENI 3 or 10 μM 24 h, 0.8 mM H2O2 1 h
Description: To determine ROS levels in PC12 cells, we seeded 5 × 10^4 PC12 cells in each well of a 24-well plate. Cells were treated with RES (10 μM) or GENI (1, 3, and 10 μM) for 24 h, followed by 0.8 mM H2O2 for 1 h. DCFH-DA (2,7-dichlorodihydrofluorescein diacetate, final concentration, 10 μM) was then added to each well and incubated for 30 min. Cells were washed with PBS to remove extracellular DCFH-DA, and intercellular ROS was detected by using a SpectraMax M3 multimode microplate reader (Molecular Devices Corporation, San Jose, CA, USA) at an excitation wavelength of 488 nm and an emission wavelength of 525 nm. Meanwhile, DCF in PC12 cells was observed using a fluorescence microscope (HCS, Thermo Fisher, Science, Waltham, MA, USA). To detect malondialdehyde (MDA) content and total SOD enzymatic activities in PC12 cells, we seeded 2 × 10^6 PC12 cells in 60 mm dishes containing 5 mL of DMEM and cultured the cells for 24 h. PC12 cells were treated with RES (10 μM) or GENI (3 or 10 μM) for 24 h and then treated with 0.8 mM H2O2 for 1 h to determine the MDA content and total superoxide dismutase (SOD) activities. Cells were lysed and centrifuged. […] MDA quantification and total SOD activities were determined using MDA and SOD enzyme activity assay kits (Nanjing Jiancheng Bioengineering Institute, Nanjing, China) following the manufacturer’s instructions.

[3] = system: PC12 cells; assay: Western blot of LC3 II/LC3 I in the autophagy flow assay; assay type: cell-based; settings: GENI group compared with the control group
Description: (§1) Western blot analysis for p-AMPK α, AMPK α, p-mTOR, mTOR, p-ULK1, ULK1, and LC3-I/II was conducted according to the information described in the materials and methods section of Supplementary Information.
(§2) 1.3. Western blot analysis.
(§3) For PC12 cell samples, we seeded 2 × 10^6 PC12 cells in each 60 mm dish containing 5 mL of DMEM and incubated the dish for 24 h. For the dose-dependent experiment of GENI, GENI (1, 3 and 10 μM) was added to the dishes and incubated for a period of time (2 hours for p-AMPK α, AMPK α, 48 hours for p-mTOR, mTOR and p-ULK1, ULK1; 8 hours for LC3-I/II). Cells were then collected, lysed using RAPI lysis buffer and centrifuged. The supernatants of each group were used as protein samples. For the protein samples of autophagy flow assay, we seeded 2 × 10^6 PC12 cells in each 60 mm dish containing 5 mL of DMEM and incubated the dish for 24 h.
The GENI, rapamycin and inhibitors, such as chloroquine and 3-MA were added according to the method of autophagy flow assay. After treatment of 18 h, cells were then collected, lysed using RAPI lysis buffer and centrifuged. […] The protein concentration was measured with a BCA assay kit (Beijing Cowin Biotech Company, Beijing, China). […] Bands were quantitatively measured using ImageJ software (National Institutes of Health, Bethesda, MD, USA).

[4] = system: AMPK/mTOR/ULK1/LC3B signaling pathway; assay: Western blot of autophagy signaling pathway proteins; assay type: cell-based; settings: after giving GENI; PC12 cells and mouse hippocampus and cerebral cortex (Extended Data Figure S3a–f)
Description: as §1, §2
as §3, with “For the protein samples of autophagy flow assay, we seeded 2 × 10^6 PC12 cells in each 60 mm dish containing 5 mL of DMEM and incubated the dish for 24 h.” left out
The supernatants of each group were used as protein samples. For animal samples, an appropriate amount of tissue, such as cerebral cortex and hippocampus (50–100 mg), of each group was weighed, and we added lysis buffer with 1:9 ratios. After grinding and centrifuging, the supernatants of each group were used as protein samples. The protein concentration was measured with a BCA assay kit (Beijing Cowin Biotech Company, Beijing, China). Sodium dodecyl sulphate polyacrylamide gel electrophoresis (SDS-PAGE) was used to separate proteins (15 μg), which were transferred to PVDF membranes. The membrane was incubated with primary and secondary antibodies (Supplementary Table S5 for details). Antigens were visualised using a high-sensitivity chemiluminescence detection kit (Beijing Cowin Biotech Company, Beijing, China). Bands were quantitatively measured using ImageJ software (National Institutes of Health, Bethesda, MD, USA).

SMILES: CC(C)CCOC(=O)C1=CO[C@@H](O[C@@H]2O[C@H](CO)[C@@H](O)[C@H](O)[C@H]2O)C2C(CO)=CCC12 (stereo partly shown) [GENI, Geniposidic 4-isoamyl ester]
- stability of MAPK against pronase (DARTS) [1]: dramatically enhanced the stability
- H2O2-induced increase in MDA [2]: significantly reduce
- LC3 II at the protein level [3]: significantly increased
- LC3B at protein level [4]: increase
- phosphorylate-AMPK at protein level [4]: increase
- phosphorylate-ULK1 at protein level [4]: increase
- phosphorylate-mTOR at protein level [4]: reduction
